According to publication PMC3493683 (Journal of medicinal chemistry, 2012):

Molecular target: recombinant β-secretase (memapsin 2, BACE 1) (Homo sapiens, UniProt P56817)
Assay: BACE 1 inhibitory activity against recombinant β-secretase
Assay type: biochemical
Conditions: for BACE 1 inhibitory activity (in words): recombinant β-secretase

Sequence of recombinant β-secretase (memapsin 2, BACE 1) (P56817 46-501): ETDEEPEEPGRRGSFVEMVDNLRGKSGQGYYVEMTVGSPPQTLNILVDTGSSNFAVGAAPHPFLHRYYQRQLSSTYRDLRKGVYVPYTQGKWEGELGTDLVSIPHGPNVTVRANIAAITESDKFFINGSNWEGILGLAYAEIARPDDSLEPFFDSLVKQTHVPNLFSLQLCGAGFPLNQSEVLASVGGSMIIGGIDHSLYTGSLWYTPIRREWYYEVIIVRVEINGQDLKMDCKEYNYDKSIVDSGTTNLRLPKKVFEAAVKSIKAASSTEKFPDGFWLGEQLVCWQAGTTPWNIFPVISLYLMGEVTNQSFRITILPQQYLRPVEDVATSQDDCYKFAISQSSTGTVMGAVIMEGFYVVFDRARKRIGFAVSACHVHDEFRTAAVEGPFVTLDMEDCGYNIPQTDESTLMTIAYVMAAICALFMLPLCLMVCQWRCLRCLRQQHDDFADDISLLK

| BACE 1 inhibitory activity (in words) | SMILES | other results |
| --- | --- | --- |
| abolished all BACE 1 inhibitory activity | CC(C)CN(C)C(=O)[C@@H](NC[C@H](Cc1ccccc1)NC(=O)c1cc(C(=O)N[C@H](C)c2ccccc2)cc(N(C)S(C)(=O)=O)c1)[C@H](C)O [Inhibitor 7] |  |
| total loss in potency | CC(C)CNC[C@@H](NC[C@H](Cc1ccccc1)NC(=O)c1cc(C(=O)N[C@H](C)c2ccccc2)cc(N(C)S(C)(=O)=O)c1)[C@H](C)O [Inhibitor 9] |  |
|  | CCC[C@H](O)[C@H](NC[C@H](Cc1ccccc1)NC(=O)c1cc2c3c(c1)c(CC)cn3CCS(=O)(=O)N2C)C(=O)NCC(C)C [Inhibitor 19] | improvement in the potency (BACE 1) (compared with inhibitor 18): around 18 fold |
|  | CCC[C@H](O)[C@H](NC[C@H](Cc1ccccc1)NC(=O)c1cc2c3c(c1)c(CC)cn3CC(C)(C)S(=O)(=O)N2C)C(=O)NCC(C)C [Inhibitor 20] | potency enhancement (BACE 1) (over unsubstituted inhibitor 19): > 10 fold |
